Experiments:
[1] = biological target: Dual specificity tyrosine-phosphorylation-regulated kinase 1B (Homo sapiens, UniProt Q9Y463); experiment: Inhibition of human full length recombinant DYRK1B using RRRFRPASPLRGPP substrate by radiometric scintillation assay
[2] = biological target: T1, Dual specificity protein kinase CLK2 (Homo sapiens, UniProt P49760); experiment: Inhibition of human recombinant CLK2 using YRRAAVPPSPSLSR substrate by radiometric scintillation assay
[3] = biological target: Homeodomain-interacting protein kinase 1 (Homo sapiens, UniProt Q86Z02); experiment: Inhibition of human recombinant HIPK1 using myelin substrate by radiometric scintillation assay
Homeodomain-interacting protein kinase 1, sequence (Q86Z02 whole entry): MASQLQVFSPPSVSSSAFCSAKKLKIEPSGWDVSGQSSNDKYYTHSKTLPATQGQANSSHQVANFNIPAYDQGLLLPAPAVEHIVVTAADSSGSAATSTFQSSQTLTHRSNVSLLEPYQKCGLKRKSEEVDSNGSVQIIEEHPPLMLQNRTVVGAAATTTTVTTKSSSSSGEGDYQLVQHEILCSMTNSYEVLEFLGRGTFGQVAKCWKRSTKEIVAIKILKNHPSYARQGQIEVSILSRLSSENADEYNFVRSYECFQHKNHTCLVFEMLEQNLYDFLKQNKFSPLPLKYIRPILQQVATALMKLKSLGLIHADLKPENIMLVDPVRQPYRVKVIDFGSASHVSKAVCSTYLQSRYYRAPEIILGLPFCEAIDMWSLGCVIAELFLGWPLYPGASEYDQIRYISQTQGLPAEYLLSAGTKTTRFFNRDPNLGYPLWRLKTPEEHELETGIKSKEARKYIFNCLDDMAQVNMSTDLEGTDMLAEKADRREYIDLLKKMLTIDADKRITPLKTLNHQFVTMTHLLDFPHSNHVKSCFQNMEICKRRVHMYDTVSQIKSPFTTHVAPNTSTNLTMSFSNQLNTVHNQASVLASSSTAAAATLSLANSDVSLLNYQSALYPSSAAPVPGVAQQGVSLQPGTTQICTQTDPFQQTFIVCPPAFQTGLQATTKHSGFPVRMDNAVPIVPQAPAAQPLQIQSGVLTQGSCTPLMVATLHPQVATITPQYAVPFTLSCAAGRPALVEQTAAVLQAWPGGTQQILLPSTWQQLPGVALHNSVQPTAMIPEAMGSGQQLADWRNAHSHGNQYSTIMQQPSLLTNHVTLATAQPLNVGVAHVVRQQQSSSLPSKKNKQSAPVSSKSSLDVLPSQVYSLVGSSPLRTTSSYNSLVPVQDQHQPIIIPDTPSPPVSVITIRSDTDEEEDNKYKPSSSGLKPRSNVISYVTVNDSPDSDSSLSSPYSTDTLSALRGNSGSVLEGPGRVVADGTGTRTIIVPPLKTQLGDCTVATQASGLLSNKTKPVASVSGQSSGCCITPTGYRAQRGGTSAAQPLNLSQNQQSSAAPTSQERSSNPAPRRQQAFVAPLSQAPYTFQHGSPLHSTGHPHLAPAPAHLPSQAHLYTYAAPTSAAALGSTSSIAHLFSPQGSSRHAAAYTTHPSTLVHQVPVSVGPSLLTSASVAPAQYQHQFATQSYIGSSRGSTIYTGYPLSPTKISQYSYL

[4] = biological target: T2, Dual specificity tyrosine-phosphorylation-regulated kinase 2 (Homo sapiens, UniProt Q92630); experiment: Inhibition of human full length recombinant DYRK2 using casein substrate by radiometric scintillation assay
T2 sequence (Q92630 whole entry): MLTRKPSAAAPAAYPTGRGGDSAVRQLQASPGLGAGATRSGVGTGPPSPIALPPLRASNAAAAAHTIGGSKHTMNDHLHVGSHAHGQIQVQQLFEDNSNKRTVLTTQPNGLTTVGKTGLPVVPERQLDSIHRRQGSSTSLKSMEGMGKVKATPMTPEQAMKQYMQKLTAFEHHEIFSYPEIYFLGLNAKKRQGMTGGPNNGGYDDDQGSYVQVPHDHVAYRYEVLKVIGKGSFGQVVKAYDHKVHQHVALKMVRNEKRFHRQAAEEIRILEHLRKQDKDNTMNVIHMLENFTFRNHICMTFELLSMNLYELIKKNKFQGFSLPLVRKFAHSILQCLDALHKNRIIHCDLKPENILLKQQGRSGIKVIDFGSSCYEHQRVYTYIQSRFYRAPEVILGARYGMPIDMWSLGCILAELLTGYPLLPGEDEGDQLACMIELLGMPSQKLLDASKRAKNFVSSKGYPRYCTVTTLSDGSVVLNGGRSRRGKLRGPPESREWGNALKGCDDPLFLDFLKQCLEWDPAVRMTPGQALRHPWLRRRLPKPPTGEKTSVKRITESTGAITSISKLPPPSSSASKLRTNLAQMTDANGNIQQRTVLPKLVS

[5] = biological target: T3, Dual specificity protein kinase CLK1 (Homo sapiens, UniProt P49759); experiment: Inhibition of human recombinant CLK1 using ERMRPRKRQGSVR substrate by radiometric scintillation assay
[6] = biological target: T4, Dual specificity protein kinase CLK4 (Homo sapiens, UniProt Q9HAZ1); experiment: Inhibition of human recombinant CLK4 using YRRAAVPPSPSLS substrate by radiometric scintillation assay
T4 sequence (Q9HAZ1 whole entry): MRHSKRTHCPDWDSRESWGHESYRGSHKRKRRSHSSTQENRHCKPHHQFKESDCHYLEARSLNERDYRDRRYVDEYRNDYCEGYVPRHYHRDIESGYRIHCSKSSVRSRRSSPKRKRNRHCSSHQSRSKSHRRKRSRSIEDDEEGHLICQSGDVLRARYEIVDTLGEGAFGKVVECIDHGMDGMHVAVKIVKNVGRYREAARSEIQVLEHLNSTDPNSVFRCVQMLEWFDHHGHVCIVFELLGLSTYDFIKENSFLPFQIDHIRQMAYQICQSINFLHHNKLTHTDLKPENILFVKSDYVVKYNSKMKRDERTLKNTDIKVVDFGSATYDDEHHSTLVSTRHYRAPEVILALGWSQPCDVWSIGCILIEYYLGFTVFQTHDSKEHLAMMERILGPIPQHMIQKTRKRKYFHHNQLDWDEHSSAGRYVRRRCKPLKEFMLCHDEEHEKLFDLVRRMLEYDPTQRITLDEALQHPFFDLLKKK

[7] = biological target: Homeodomain-interacting protein kinase 2 (Homo sapiens, UniProt Q9H2X6); experiment: Inhibition of human recombinant HIPK2 using myelin substrate by radiometric scintillation assay
Homeodomain-interacting protein kinase 2, sequence (Q9H2X6 whole entry): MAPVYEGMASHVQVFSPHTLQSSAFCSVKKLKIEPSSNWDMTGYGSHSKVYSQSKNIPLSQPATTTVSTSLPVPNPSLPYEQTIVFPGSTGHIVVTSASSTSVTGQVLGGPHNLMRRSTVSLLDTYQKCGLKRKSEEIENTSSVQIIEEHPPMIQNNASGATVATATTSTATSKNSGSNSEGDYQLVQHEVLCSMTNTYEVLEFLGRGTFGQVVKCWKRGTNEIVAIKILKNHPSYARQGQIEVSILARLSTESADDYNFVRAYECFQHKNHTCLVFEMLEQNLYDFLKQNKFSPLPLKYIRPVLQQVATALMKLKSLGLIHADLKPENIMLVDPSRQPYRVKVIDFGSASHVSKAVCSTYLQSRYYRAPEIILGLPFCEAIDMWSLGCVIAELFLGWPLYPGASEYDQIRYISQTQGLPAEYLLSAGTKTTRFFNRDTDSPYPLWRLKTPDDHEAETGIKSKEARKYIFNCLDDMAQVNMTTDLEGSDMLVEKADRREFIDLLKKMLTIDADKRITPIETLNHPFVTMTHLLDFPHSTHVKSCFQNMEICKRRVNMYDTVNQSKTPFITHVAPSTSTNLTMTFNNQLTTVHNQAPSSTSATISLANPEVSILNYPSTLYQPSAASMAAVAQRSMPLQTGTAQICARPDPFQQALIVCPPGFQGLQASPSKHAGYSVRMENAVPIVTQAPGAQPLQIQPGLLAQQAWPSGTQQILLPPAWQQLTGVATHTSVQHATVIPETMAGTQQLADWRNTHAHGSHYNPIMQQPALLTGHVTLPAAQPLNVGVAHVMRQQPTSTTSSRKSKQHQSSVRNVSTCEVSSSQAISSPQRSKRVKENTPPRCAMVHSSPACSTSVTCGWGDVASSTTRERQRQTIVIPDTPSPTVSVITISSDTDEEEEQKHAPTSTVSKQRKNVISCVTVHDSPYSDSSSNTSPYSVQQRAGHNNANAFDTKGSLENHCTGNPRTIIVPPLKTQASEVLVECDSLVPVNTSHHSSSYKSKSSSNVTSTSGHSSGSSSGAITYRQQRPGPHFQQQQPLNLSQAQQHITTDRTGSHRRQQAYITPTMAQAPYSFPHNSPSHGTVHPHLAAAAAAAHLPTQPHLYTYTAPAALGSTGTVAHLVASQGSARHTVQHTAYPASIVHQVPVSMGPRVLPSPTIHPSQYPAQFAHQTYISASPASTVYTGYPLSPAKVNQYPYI

[8] = biological target: Dual specificity tyrosine-phosphorylation-regulated kinase 1A (Homo sapiens, UniProt Q13627); experiment: Inhibition of human full length recombinant DYRK1A using RRRFRPASPLRGPP substrate by radiometric scintillation assay
[9] = biological target: T5, Dual specificity protein kinase CLK3 (Homo sapiens, UniProt P49761); experiment: Inhibition of human full length recombinant CLK3 using ERMRPRKRQGSVR substrate by radiometric scintillation assay
[10] = biological target: T6, Homeodomain-interacting protein kinase 3 (Homo sapiens, UniProt Q9H422); experiment: Inhibition of human recombinant HIPK3 using myelin substrate by radiometric scintillation assay
T6 sequence (Q9H422 whole entry): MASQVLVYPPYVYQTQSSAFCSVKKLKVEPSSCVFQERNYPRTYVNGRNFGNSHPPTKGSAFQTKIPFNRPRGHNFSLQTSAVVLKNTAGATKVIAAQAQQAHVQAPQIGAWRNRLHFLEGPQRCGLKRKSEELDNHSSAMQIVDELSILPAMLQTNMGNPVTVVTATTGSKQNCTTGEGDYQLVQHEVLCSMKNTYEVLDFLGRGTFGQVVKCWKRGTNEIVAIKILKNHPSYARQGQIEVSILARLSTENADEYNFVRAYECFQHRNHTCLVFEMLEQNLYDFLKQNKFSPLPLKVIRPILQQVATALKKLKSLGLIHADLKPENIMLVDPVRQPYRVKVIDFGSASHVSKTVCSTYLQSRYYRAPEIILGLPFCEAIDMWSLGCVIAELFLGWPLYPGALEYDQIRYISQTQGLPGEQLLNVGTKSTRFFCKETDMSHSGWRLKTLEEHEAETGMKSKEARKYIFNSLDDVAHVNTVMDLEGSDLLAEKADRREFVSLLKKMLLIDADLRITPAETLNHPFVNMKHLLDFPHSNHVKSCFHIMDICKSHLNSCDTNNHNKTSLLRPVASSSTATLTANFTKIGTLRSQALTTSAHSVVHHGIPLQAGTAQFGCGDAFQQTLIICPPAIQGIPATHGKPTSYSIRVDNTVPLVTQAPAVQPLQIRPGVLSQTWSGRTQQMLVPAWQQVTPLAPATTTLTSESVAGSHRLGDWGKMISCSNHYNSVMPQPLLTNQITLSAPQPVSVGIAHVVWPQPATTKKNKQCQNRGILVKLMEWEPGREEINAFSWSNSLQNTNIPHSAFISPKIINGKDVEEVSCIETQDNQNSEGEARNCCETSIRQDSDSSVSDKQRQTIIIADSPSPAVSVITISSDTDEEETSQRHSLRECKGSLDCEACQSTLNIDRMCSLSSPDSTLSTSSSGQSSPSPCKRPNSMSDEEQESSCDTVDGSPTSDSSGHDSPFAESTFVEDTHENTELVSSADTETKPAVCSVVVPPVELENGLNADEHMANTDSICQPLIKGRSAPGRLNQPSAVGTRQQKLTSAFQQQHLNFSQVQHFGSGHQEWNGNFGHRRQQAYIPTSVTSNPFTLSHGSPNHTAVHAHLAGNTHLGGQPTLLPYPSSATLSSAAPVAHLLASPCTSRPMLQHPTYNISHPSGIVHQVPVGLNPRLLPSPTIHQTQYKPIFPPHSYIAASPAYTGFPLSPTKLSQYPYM

[11] = test system: MCF7; experiment: Cytotoxicity against human MCF7 cells assessed as reduction in cell viability incubated for 48 hrs by CyQuant assay; assay type: functional, cell-based; settings: MCF7, 48 h
[12] = biological target: T6, Homeodomain-interacting protein kinase 3; experiment: Inhibition of HIPK3 (unknown origin)
[13] = biological target: T4, Dual specificity protein kinase CLK4; experiment: Inhibition of CLK4 (unknown origin) by NanoBRET cellular target engagement assay
[14] = biological target: Mitogen-activated protein kinase kinase kinase 10 (Homo sapiens, UniProt Q02779); experiment: Inhibition of MLK2 (unknown origin) by NanoBRET cellular target engagement assay
[15] = biological target: Mitogen-activated protein kinase kinase kinase 9 (Homo sapiens, UniProt P80192); experiment: Inhibition of MLK1 (unknown origin) by NanoBRET cellular target engagement assay
[16] = biological target: T1, Dual specificity protein kinase CLK2; experiment: Inhibition of CLK2 (unknown origin) by NanoBRET cellular target engagement assay
[17] = biological target: T3, Dual specificity protein kinase CLK1; experiment: Inhibition of CLK1 (unknown origin) by NanoBRET cellular target engagement assay
[18] = biological target: T2, Dual specificity tyrosine-phosphorylation-regulated kinase 2; experiment: Inhibition of DYRK2 (unknown origin) by NanoBRET cellular target engagement assay
[19] = biological target: T5, Dual specificity protein kinase CLK3; experiment: Inhibition of CLK3 (unknown origin) by NanoBRET cellular target engagement assay

Dual specificity tyrosine-phosphorylation-regulated kinase 1B, sequence (Q9Y463 whole entry): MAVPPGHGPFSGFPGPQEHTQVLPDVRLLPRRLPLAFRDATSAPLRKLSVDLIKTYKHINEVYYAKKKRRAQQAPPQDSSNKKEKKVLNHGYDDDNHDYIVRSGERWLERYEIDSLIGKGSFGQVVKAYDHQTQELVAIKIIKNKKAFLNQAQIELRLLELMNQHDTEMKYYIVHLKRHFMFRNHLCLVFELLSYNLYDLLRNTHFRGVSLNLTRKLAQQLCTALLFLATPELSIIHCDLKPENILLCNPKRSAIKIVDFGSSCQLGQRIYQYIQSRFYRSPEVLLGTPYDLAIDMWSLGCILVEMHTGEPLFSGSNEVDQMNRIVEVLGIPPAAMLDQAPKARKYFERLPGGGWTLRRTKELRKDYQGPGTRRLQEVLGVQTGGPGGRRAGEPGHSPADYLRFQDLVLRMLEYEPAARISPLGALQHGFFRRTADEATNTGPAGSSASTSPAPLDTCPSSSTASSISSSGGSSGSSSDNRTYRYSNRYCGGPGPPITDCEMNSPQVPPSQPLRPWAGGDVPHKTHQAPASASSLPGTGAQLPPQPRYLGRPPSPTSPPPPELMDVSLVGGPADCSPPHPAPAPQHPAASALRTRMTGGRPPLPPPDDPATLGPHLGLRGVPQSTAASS

Row | Compound | IC50 [1] [nM] | IC50 [2] [nM] | IC50 [3] [nM] | IC50 [4] [nM] | IC50 [5] [nM] | IC50 [6] [nM] | IC50 [7] [nM] | IC50 [8] [nM] | IC50 [9] [nM] | IC50 [10] [nM] | IC50 [11] [nM] | IC50 [12] [nM] | IC50 [13] [nM] | IC50 [14] [nM] | IC50 [15] [nM] | IC50 [16] [nM] | IC50 [17] [nM] | IC50 [18] [nM] | IC50 [19] [nM]
1 | c1n[nH]cc1-c1ccc2occ(-c3ccc(C45CC6CC(CC(C6)C4)C5)cc3)c2n1 | > 3000 | > 3000 | > 3000 | > 3000 | > 3000 | > 3000 | > 3000 | > 3000 | > 3000 | > 3000 | – | – | – | – | – | – | – | – | –
2 | CC(C)(C)c1ccc(-c2coc3ccc(-c4cnn(CCN5CCOCC5)c4)nc23)cc1 | > 3000 | > 3000 | > 3000 | > 3000 | > 3000 | > 3000 | > 3000 | > 3000 | > 3000 | > 3000 | – | – | – | – | – | – | – | – | –
3 | Cn1cc(-c2ccc3occ(-c4cccc(-c5cn[nH]c5)c4)c3n2)cn1 | 1300 | 37 | 177 | > 3000 | 16 | 19 | 102 | 139 | 1590 | 164 | 30000 | – | – | – | – | – | – | – | –
4 | Cn1ccc(-c2ccc3occ(-c4ccc(C(C)(C)C)cc4)c3n2)n1 | > 3000 | > 3000 | > 3000 | > 3000 | > 3000 | > 3000 | > 3000 | > 3000 | > 3000 | > 3000 | – | – | – | – | – | – | – | – | –
5 | Cn1cc(-c2ccc3occ(-c4cccc(C5CCNCC5)c4)c3n2)cn1 | > 3000 | 90 | 264 | > 3000 | 59 | 52 | 179 | 324 | > 3000 | 300 | – | – | – | – | – | – | – | – | –
6 | CN1CCC(c2cccc(-c3coc4ccc(-c5cnn(C)c5)nc34)c2)CC1 | > 3000 | 667 | 354 | > 3000 | 169 | 116 | 260 | 568 | > 3000 | 692 | – | – | – | – | – | – | – | – | –
7 | CC(C)Cc1ccc(-c2coc3ccc(-c4cn[nH]c4)nc23)cc1 | > 3000 | 827 | 685 | > 3000 | 671 | 896 | 501 | > 3000 | > 3000 | 1230 | – | – | – | – | – | – | – | – | –
8 | CN(C)C[C@@H]1CCn2cc(c3ccccc32)C2=C(C(=O)NC2=O)c2cn(c3ccccc23)CCO1 [RUBOXISTAURIN] | – | – | – | – | – | – | – | – | – | – | – | 100 | – | – | – | – | – | – | –
9 | CC(C)(C)c1ccc(-c2coc3ccc(-c4cc[nH]n4)nc23)cc1 | > 3000 | > 3000 | > 3000 | > 3000 | > 3000 | > 3000 | 1280 | > 3000 | > 3000 | > 3000 | – | – | – | – | – | – | – | – | –
10 | CC1(c2ccc(-c3coc4ccc(-c5cn[nH]c5)nc34)cc2)CC1 | > 3000 | 155 | 220 | > 3000 | 308 | 320 | 68 | > 3000 | > 3000 | 441 | – | – | – | – | – | – | – | – | –
11 | C=C(C)c1ccc(-c2coc3ccc(-c4cn[nH]c4)nc23)cc1 | > 3000 | 40 | 51 | > 3000 | 68 | 42 | 41 | 1370 | > 3000 | 65 | – | – | – | – | – | – | – | – | –
12 | COc1ccc(-c2coc3ccc(-c4cn[nH]c4)nc23)cc1 | – | 39 | 33 | 1000 | – | 46 | 15 | – | – | 66 | – | – | – | – | – | – | – | – | –
13 | COC(=N)c1nc2ccc3ncnc(Nc4ccc(OC)cc4F)c3c2s1 | – | – | – | – | – | – | – | – | – | – | – | – | > 3000 | > 3000 | > 3000 | > 3000 | > 3000 | > 3000 | > 3000
14 | c1ccc(-c2ccc(-c3coc4ccc(-c5cn[nH]c5)nc34)cc2)cc1 | > 3000 | 529 | 278 | > 3000 | 114 | 126 | 172 | > 3000 | > 3000 | 807 | – | – | – | – | – | – | – | – | –

Source: ChEMBL document CHEMBL4732242 (Eur J Med Chem, 2021)
